Data published in BindingDB's records for doi:10.7270/Q25B013C (The Scripps Research Institute Molecular Screening Center, 2014).
pIC50: −log10 of the molar value.

target: T1, Disintegrin and metalloproteinase domain-containing protein 10 (Homo sapiens, UniProt O14672); assay: inhibition of ADAM10 peptide cleavage – biochemical, FRET peptide substrate, recombinant human ADAM10, selectivity assay for ADAM17 exosite inhibitor project, dose response (AID 743259)
T1 sequence (O14672 whole entry): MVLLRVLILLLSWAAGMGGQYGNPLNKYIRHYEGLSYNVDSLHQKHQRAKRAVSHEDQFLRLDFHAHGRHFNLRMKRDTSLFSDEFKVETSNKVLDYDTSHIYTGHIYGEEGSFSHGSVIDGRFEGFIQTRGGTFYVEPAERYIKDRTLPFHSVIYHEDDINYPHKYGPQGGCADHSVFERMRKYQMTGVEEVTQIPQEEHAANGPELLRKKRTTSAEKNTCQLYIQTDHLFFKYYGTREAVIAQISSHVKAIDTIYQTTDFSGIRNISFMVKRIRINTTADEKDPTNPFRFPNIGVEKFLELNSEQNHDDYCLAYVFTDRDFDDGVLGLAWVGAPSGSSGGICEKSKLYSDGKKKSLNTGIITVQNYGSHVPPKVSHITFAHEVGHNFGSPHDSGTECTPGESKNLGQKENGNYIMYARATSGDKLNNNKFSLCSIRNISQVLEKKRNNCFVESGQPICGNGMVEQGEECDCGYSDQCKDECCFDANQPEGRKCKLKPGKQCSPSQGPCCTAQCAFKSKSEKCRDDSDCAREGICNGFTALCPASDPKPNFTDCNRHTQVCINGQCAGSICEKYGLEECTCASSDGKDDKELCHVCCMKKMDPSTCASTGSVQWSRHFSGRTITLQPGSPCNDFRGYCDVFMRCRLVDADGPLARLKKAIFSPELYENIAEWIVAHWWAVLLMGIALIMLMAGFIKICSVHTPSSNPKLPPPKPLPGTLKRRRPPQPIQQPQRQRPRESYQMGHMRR

SMILES	pIC50
CC(=NNC(=N)Sc1cc(O)n(-c2ccc(Br)cc2)c1O)c1cccs1 [[1-(4-bromophenyl)-2,5-bis(oxidanylidene)pyrrolidin-3-yl] N''-(1-thiophen-2-ylethylideneamino)carbamimidothioate]	4.49
CCOc1ccc(NC(=O)Cc2sc(=O)n(-c3ccccc3)c2O)cc1	4.42
CCOc1cc(C(c2c(C)[nH][nH]c2=O)c2c(C)[nH][nH]c2=O)ccc1O [4-[(3-ethoxy-4-hydroxyphenyl)-(3-methyl-5-oxo-1,2-dihydropyrazol-4-yl)methyl]-5-methyl-1,2-dihydropyrazol-3-one]	5.59
O=C1OCCN1C(=O)C1=[N+](c2ccc(Br)cc2)N[C-](c2ccccc2)[C@H]1c1ccc([N+](=O)[O-])cc1 [SMR000327268]	4.16
CC(=NNC(=N)Sc1cc(O)n(-c2ccccc2)c1O)c1cccs1 [[2,5-bis(oxidanylidene)-1-phenyl-pyrrolidin-3-yl] N'-[(E)-1-thiophen-2-ylethylideneamino]carbamimidothioate]	5.00
O=C(Cc1sc(=O)n(-c2ccccc2)c1O)Nc1ccccc1 [2-(2,4-diketo-3-phenyl-thiazolidin-5-yl)-N-phenyl-acetamide]	4.32
CC1CCCN(CCCNC(=O)c2coc3nc4ccccc4nc23)C1 (configuration not stated) [MLS000046706]	4.54
Cn1c(-c2sccc2OCc2ccc(Cl)cc2Cl)n[nH]c1=S	4.96

The next lines start with the values.

pIC50	SMILES
4.16	COC(=O)c1cccc(Cn2c(Cl)c(CN=Nc3ccccc3C)sc2=O)c1 [methyl 3-[[4-chloro-5-[[(2-methylphenyl)hydrazinylidene]methyl]-2-oxo-1,3-thiazol-3-yl]methyl]benzoate]
4.16	Cc1cccc(NNC2=c3cc(Br)ccc3=NC2=O)c1 [5-bromo-3-[2-(3-methylphenyl)hydrazinyl]indol-2-one]
4.16	COc1cccc(C2c3oc(CO)cc(=O)c3OC(=N)C2C#N)c1 (configuration not stated) [2-Amino-6-hydroxymethyl-4-(3-methoxy-phenyl)-8-oxo-4,8-dihydro-pyrano[3,2-b]pyran-3-carbonitrile]
4.16	COc1ccc(NC(=O)c2oc3ccccc3c2NC(=O)C(C)(C)C)cc1 [3-(2,2-dimethylpropanoylamino)-N-(4-methoxyphenyl)-1-benzofuran-2-carboxamide]
